Measurements published in the supplement of paper PMC11061612.

Columns and labels:
Experiment in all cases: combination Emax (second highest fraction inhibited in the dose matrix, 72 h); higher = more inhibition; extreme values may be limits of the assay
[1] = system: D-392MG (Glioblastoma)
Procedure, shortened: (§1)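 Bliss excess equals the observed combination effect minus the expected value EA + EB − EA·EB, where EA and EB are the effects of each agent alone. Combination Emax is the second-highest inhibition within the matrix. Inhibition was scaled from CellTiter-Glo 2.0 luminescence, with 0 set by vehicle wells and 1 by blank wells, after 72 hours of two-drug dosing of cells plated in 1536-well plates.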

[2] = system: ETK-1 (Biliary Tract Carcinoma)
Procedure, shortened: as §1

[3] = system: HCT-116 (Colorectal Carcinoma)
Procedure, shortened: as §1

[4] = system: PA-TU-8902 (Pancreatic Carcinoma)
Procedure, shortened: as §1

[5] = system: Saos-2 (Osteosarcoma)
Procedure, shortened: as §1

[6] = system: H4 (Low Grade Glioma)
Procedure, shortened: as §1

[7] = system: MCF7 (Breast Carcinoma)
Procedure, shortened: as §1

[8] = system: KG-1 (Acute Myeloid Leukemia)
Procedure, shortened: as §1

[9] = system: HOP-92 (Non-Small Cell Lung Carcinoma)
Procedure, shortened: as §1

[10] = system: SNG-M (Endometrial Carcinoma)
Procedure, shortened: as §1

[11] = system: NCI-H1688 (Small Cell Lung Carcinoma)
Procedure, shortened: as §1

[12] = system: SW948 (Colorectal Carcinoma)
Procedure, shortened: as §1

[13] = system: D-283MED (Other Solid Carcinomas)
Procedure, shortened: as §1

[14] = system: U-118-MG (Low Grade Glioma)
Procedure, shortened: as §1

[15] = system: HCC1143 (Breast Carcinoma)
Procedure, shortened: as §1

[16] = system: CAL-39 (Other Solid Carcinomas)
Procedure, shortened: as §1

[17] = system: HLE (Hepatocellular Carcinoma)
Procedure, shortened: as §1

[18] = system: YT (Other Blood Carcinomas)
Procedure, shortened: as §1

[19] = system: SNU-61 (Colorectal Carcinoma)
Procedure, shortened: as §1

[20] = system: TYK-nu (Ovarian Carcinoma)
Procedure, shortened: as §1

SMILES | combination Emax [1] | combination Emax [2] | combination Emax [3] | combination Emax [4] | combination Emax [5] | combination Emax [6] | combination Emax [7] | combination Emax [8] | combination Emax [9] | combination Emax [10] | combination Emax [11] | combination Emax [12] | combination Emax [13] | combination Emax [14] | combination Emax [15] | combination Emax [16] | combination Emax [17] | combination Emax [18] | combination Emax [19] | combination Emax [20]
COc1cc2ncnc(Nc3ccc(F)c(Cl)c3)c2cc1OCCCN1CCOCC1 [Gefitinib] + CC(C)n1c(=O)n(C)c2cnc3cc(F)c(-c4ccc(OCCCN5CCCCC5)nc4)cc3c21 [AZD1390] (first compound max 10 µM, 7x7, partner max 0.3 µM) | 0.084 | 0.576 | 0.133 | 0.14 | 0.184 | 0.121 | 0.0973 | 0.182 | 0.229 | 0.229 | 0.233 | 0.162 | 0.425 | 0.0987 | 0.253 | 0.833 | 0.101 | 0.185 | 0.18 | 0.197
CS(=O)(=O)CCNCc1ccc(-c2ccc3ncnc(Nc4ccc(OCc5cccc(F)c5)c(Cl)c4)c3c2)o1 [Lapatinib] + C[C@@H](Oc1cc(-c2cnn(C3CCNCC3)c2)cnc1N)c1c(Cl)ccc(F)c1Cl [Crizotinib] (first compound max 10 µM, 7x7, partner max 10 µM) | 0.498 | 0.958 | 0.956 | 0.775 | 0.889 | 0.944 | 0.981 | 0.49 | 0.937 | 0.955 | 0.742 | 0.819 | 0.985 | 0.491 | 0.875 | 1 | 0.537 | 0.939 | 0.697 | 0.719
CC(=O)c1c(C)c2cnc(Nc3ccc(N4CCNCC4)cn3)nc2n(C2CCCC2)c1=O [Palbociclib] + CC1(C)CCC(CN2CCN(c3ccc(C(=O)NS(=O)(=O)c4ccc(NCC5CCOCC5)c([N+](=O)[O-])c4)c(Oc4cnc5[nH]ccc5c4)c3)CC2)=C(c2ccc(Cl)cc2)C1 [Venetoclax] (first compound max 10 µM, 7x7, partner max 1 µM) | 0.223 | 0.281 | 0.559 | 0.245 | 0.197 | 0.597 | 0.339 | 0.85 | 0.145 | 0.424 | 0.0922 | 0.382 | 0.668 | 0.229 | 0.129 | 0.255 | 0.0796 | 0.504 | 0.152 | 0.401
CC(=O)c1c(C)c2cnc(Nc3ccc(N4CCNCC4)cn3)nc2n(C2CCCC2)c1=O [Palbociclib] + Cc1c2c(nn1C)CSCc1cc(n(C)n1)CSc1cc(c3ccccc3c1)OCCCc1c(C(=O)O)n(C)c3c-2c(Cl)ccc13 [AZD5991] (first compound max 10 µM, 7x7, partner max 1 µM) | 0.4 | 0.303 | 0.663 | 0.283 | 0.332 | 0.601 | 0.574 | 0.894 | 0.293 | 0.485 | 0.381 | 0.406 | 0.797 | 0.322 | 0.287 | 0.409 | 0.211 | 1 | 0.171 | 0.405
CC(=O)c1c(C)c2cnc(Nc3ccc(N4CCNCC4)cn3)nc2n(C2CCCC2)c1=O [Palbociclib] + Cn1cnc2c(F)c(Nc3ccc(Br)cc3Cl)c(C(=O)NOCCO)cc21 [Selumetinib] (first compound max 10 µM, 7x7, partner max 10 µM) | 0.262 | 0.347 | 0.851 | 0.416 | 0.232 | 0.632 | 0.366 | 0.481 | 0.458 | 0.296 | 0.147 | 0.665 | 0.582 | 0.296 | 0.295 | 0.775 | 0.143 | 0.606 | 0.447 | 0.584
COc1cccc(OCCCN)c1-c1cc(Nc2cnc(C#N)cn2)n[nH]1 [Prexasertib] + C=CCn1c(=O)c2cnc(Nc3ccc(N4CCN(C)CC4)cc3)nc2n1-c1cccc(C(C)(C)O)n1 [AZD1775] (first compound max 1 µM, partner max 1 µM) | 0.66 | 0.666 | 0.921 | 0.605 | 0.935 | 0.979 | 0.658 | 0.916 | 0.7 | 0.985 | 0.838 | 0.896 | 1 | 0.743 | 0.925 | 0.694 | 0.881 | 0.971 | 0.515 | 0.748
